Experimental data reported in patent publication US20100113590A1, “ADAM INHIBITOR” (Shiseido Company, Ltd., priority 2007, published 2010).

Test system: ADAM
Assay: Inhibition of PMA-induced TNF-α release from U937 cells (index of ADAM inhibition), hTNF-α ELISA
Type: cell-based, human
Conditions: for Inhibition rate (%): U937 cells, 30 min pretreatment, 10 nM PMA for 6 hours, released hTNF-α by ELISA; for suppressing effect on HB-EGF release: statement in words summarising the screening, suggests inhibition of ADAM activity
Protocol: For the ADAM inhibiting effect, the TNF-α which is cut out to be released from the membrane of the U937 cell derived from the human lymphoma through the action of ADAM was used as an index, and the inhibiting effect on the TNF-α release by the agents was assessed. A new ADAM inhibitor was explored by screening different compounds according to the present method.
The U937 cells derived from the human lymphoma were seeded to the 48-well plate adjusting the number of the cells to 1×10^5 cells/0.25 ml and cultured at 37° C. overnight. The medium which contained 5 μg/ml or 30 μg/ml of an ascorbic acid derivative was added and incubated at 37° C. for 30 min. to be pretreated. 10 nM PMA (phorbol ester: 12-O-tetradecanoylphorbol-acetate; Sigma P8139) was then added and cultured at 37° C. for 6 hours. After completion of the treatment, the supernatant of the culture was collected, centrifuged and the cell-free supernatant was cryopreserved at −20° C. The assay of the released hTNF-α was performed using the hTNF-α Duo-Set ELISA kit from R & D Ltd. Each supernatant of the culture was diluted 5-folds with the medium, then […] each was added to the 96-well plate and measured according to the protocol of R & D Ltd. The absorbance at 450-570 nm of each well was measured by the measurement kit and concentrations of the samples were obtained from the standard curve. The inhibition rates were calculated according to the following equation wherein A0 is the absorbance of 0% inhibiting control (the medium containing only PMA), A100 is the absorbance of 100% inhibiting control (only the medium) and AS is the absorbance of the sample.
The inhibition rate (%)=(A0−AS)/(A0−A100)×100

Structure (SMILES): CCCCCCCCCCCCOC1=C(O)[C@@H]([C@@H](O)CO)OC1=O [2-O-dodecyl ascorbic acid]
- Inhibition rate (%) (5 μg/mL): 18.25%
- Inhibition rate (%) (30 μg/mL): 60.07%
- suppressing effect on HB-EGF release: high suppressing effect

Structure (SMILES): CCCCCCCCCCCCCCCCCCOC1=C(O)[C@@H]([C@@H](O)CO)OC1=O [2-O-octadecyl ascorbic acid]
- Inhibition rate (%) (5 μg/mL): 15.19%
- Inhibition rate (%) (30 μg/mL): 82.70%
- suppressing effect on HB-EGF release: high suppressing effect
